Reference: patent US20030077653A1, “Method for the identification of active site protease inactivators” (The University of Georgia Research Foundation, Inc., priority 2000, published 2003)
Read-outs that look alike come from different tables or passages of the source. Starred links: 1 amine or outer side, 2 acyl side, 3 side chain; linkers in the order of their positions; H or OH if unused. Residues, ends and D or L forms follow the SMILES beside them. *: point of attachment. AFC = O=c1cc(C(F)(F)F)c2ccc(N*)cc2o1; Suc = O=C(CCC(=O)[*:2])[*:1]; Cbz = O=C(OCc1ccccc1)*

Tests used:
Cathepsin B = Cathepsin B (Homo sapiens, UniProt P07858); assay: Differential cleavage (selectivity) test; type: biochemical; conditions: vehicle 4×10^−5 M; pH 6.1, Z-ARR-AFC
Procedure: (§1) In order to perform the assay, the vehicle (for Step VI) or inhibitor (for Step IX) were incubated with the appropriate substrate in the correct assay buffer and allowed to equilibrate. Subsequently, the protease was added, and the assay was allowed to incubate for an appropriate time. The concentrations used in this experiment were as follows: Vehicle was set up at 4×10^−5 M in final assay buffer; Inhibitor was set up at 3×10^−10 M in the final assay buffer. Accordingly, the dosages employed should be the minimal amount of vehicle or inhibitor necessary to induce inhibition. […] Substrates were set up based upon the preferred substrate for cleavage of the particular enzyme.
(§2) Positive controls were set up similarly as described for test controls, except that solvent was added in substitution for the inhibitor or vehicle (in a volume equal to the volume of inhibitor or vehicle addition). All of the inhibitors and vehicles could be dissolved in dimethylsulfoxide (DMSO), and therefore, this was the solvent of choice. Negative controls were set up by adding the inhibitor or vehicle and the preferred substrates in a tube without the protease. All potential non-proteolytic liberation of AFC was therefore controlled for in this tube (a feature which also insured stability of the AFC substrates, since these substrates will freely liberate AFC when unstable).
(§3) All controls were set up in triplicate, and experiments were repeated a minimum of five times.
(§4) Percent inhibition was calculated as: [formula]
(§5) In this preliminary test, we employed the following human-derived enzymes (with indicated mechanistic class): Cathepsin B (cysteine), Cathepsin L (cysteine), Cathepsin H (cysteine), Cathepsin D (aspartic) Trypsin (serine), the purified Taenia solium cysteine protease, and the Taenia solium crude mix. Cathepsin B was prepared in an assay buffer of 10 mM L-cysteine in 0.4 M Citrate buffer, pH 6. 1, using Z-ARR-AFC as the cleavage substrate. Cathepsin L was prepared in an assay buffer of 10 mM L-cysteine in 0.4 M Citrate buffer, pH 5.5, using Z-FR-AFC as the cleavage substrate. Cathepsin H was prepared in an assay buffer of 10 mM L-cysteine in 0.15 M PBS buffer, pH 6.8, using L- R-AFC as the cleavage substrate. Cathepsin D was prepared in an assay buffer of 0.15 M PBS, pH 7.1, using Z-RGFFP-AFC as the cleavage substrate. Trypsin was prepared in an assay buffer of 0.15 M PBS, pH 8.0, supplemented with 100 mM CaCl2 and with Z-R-AFC as the cleavage substrate. Enzyme was incubated so that it was at least 50 times less than the concentration of substrate in order to insure saturating conditions.

Cathepsin D = Cathepsin D (Homo sapiens, UniProt P07339); assay: Differential cleavage (selectivity) test; type: biochemical; conditions: vehicle 4×10^−5 M; pH 7.1, Z-RGFFP-AFC
Procedure: as §1, §2, §3, §4, §5

Cathepsin H = biological target: T1, Cathepsin H (Homo sapiens, UniProt P09668); assay: Differential cleavage (selectivity) test; type: biochemical; conditions: vehicle 4×10^−5 M; pH 6.8, L-R-AFC
T1 sequence (P09668 98-335): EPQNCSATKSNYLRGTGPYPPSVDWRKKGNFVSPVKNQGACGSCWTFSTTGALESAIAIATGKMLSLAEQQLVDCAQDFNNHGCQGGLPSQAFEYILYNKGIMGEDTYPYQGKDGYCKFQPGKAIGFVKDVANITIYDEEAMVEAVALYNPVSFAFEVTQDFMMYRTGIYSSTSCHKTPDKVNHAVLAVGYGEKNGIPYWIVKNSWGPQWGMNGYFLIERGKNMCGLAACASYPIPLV
Procedure: as §1, §2, §3, §4, §5

Cathepsin L = Cathepsin L (Homo sapiens, UniProt P07711); assay: Differential cleavage (selectivity) test; type: biochemical; conditions: vehicle 4×10^−5 M; pH 5.5, Z-FR-AFC
Procedure: as §1, §2, §3, §4, §5

Trypsin = assay: Differential cleavage (selectivity) test; type: biochemical, human; conditions: vehicle 4×10^−5 M; pH 8.0, Z-R-AFC
Procedure: as §1, §2, §3, §4, §5

[1] = test system: purified Taenia solium cysteine protease; assay: Screen of AFC-linked synthetic substrates for cleavage (Step II); type: biochemical; conditions: pH 4.9, 18 h, 37° C
Procedure: In this step, the most efficacious substrate for detection of the cysteine protease (high Kcat substrate) was determined in vitro along with those substrates which were not well cleaved (low kcat substrates). From this point forth, the following conditions refer to all assays: “assay buffer” refers to 0.4 M Citrate, pH 4.9 (the pH optima of the protease). Incubation time was 18 hours at 37° C. These conditions were determined by our preliminary data to be best for kinetic evaluation of the protease. […] The experiments were conducted in […] Borosilicate mini-culture tubes (Fisher Scientific), and a fluorometer (Turner) was employed for detection of AFC cleavage.
Approximately 1 ug (or a proteolytically detectable amount) of the purified target cysteine protease was incubated individually, with 1 μg of each of the available substrates in 500 μL of assay buffer. During this setup, the substrate was pre-incubated in the assay buffer for a short period of time (20 minutes) in order to reach an equilibrated status before the addition of the protease. Cleavage assessments were based upon the property of the protease to cleave synthetic peptide substrates linked at the C-terminus to 7-Amino-4-Trifluoromethyl Coumarin (AFC) as previously described. AFC linked tripeptides, dipeptides, and monopeptides, (with a variety of permutations at P3-P1) were available from Enzyme Systems Products (Livermore, CA), and were used as the source of the subset. Following incubation of enzyme preparations overnight (18 h, 37 ° C.) with peptide in assay buffer (Citrate, pH 4.9, supplemented with 0.01 M cysteine), free AFC concentrations were measured fluorometrically (excitation […]). The proteolytic cleavage released the AFC group, which was measurable as a free molecule by a standard fluorometer and converted into molar quantities, based upon a previously established standard curve. The simplicity of AFC detection by the fluorometer was a key factor which quickened and simplified the procedures.
In the assay, 1 ug of the purified Taenia cysteine protease was added to a saturating amount of Z-Phe-Arg-AFC (4×10^−5 M) in assay buffer. The experiment was conducted in triplicate and repeated at least 5 times until we were certain that variability in AFC cleavage was not statistically significant.
Vmax was calculated for the cleavage of substrates by the purified target protease and Vmax was calculated for substrates cleaved by the crude mix protease using conventional kinetic modeling calculations already described in the art.

[2] = test system: T solium purified cysteine protease; assay: Human IgG degradation assay (western blot; Step IV); type: biochemical, Taenia solium; conditions: 18 hrs, 37° C.
Procedure: FIG.6. IgG degradation of heavy chain by purified cysteine protease of Taenia solium. human IgG was incubated for 18 hours with T. solium purified cysteine protease (CP). Incubated tubes were subsequently fractionated by SDS-PAGE under reducing conditions, blotted onto PVDF membrane, and visualized using biotinylated anti-IgG (heavy chain/light chain), biotin-peroxidase conjugated-strepavidin complex and enhanced chemiluminescence. Bands represent heavy chains.
To conduct this assessment, a western blot was performed. IgG digestion was detected by incubating 20 μl of T solium purified enzyme or T solium extract with 1 μg of human IgG (Sigma, St. Louis) in a fmal volume of 100 μl of assay buffer. Exogenous thiol activation was assessed by incubating the assay in the presence or absence of cysteine. The catalytic class of the IgG protease was determined by pre-incubating the following proteinase inhibitors at their active concentrations, with the enzyme: E 64 (10^−6 M, cysteine proteinases), phenylmethylsulfonyl fluoride (PMSF) (10^−3 M, serine proteinases), pepstatin A (10^−6 M, aspartic proteinases), and 1,10 phenanthroline (10^−3 M, metalloproteinases), and the vehicle, Mu-Leu-Tyr-AFC (10^−3 M). After addition of IgG, the assay was incubated overnight (37° C., 18 hrs). […]

Taenia crassiceps cysts [3] = assay: Short-term prophylactic protection of BALB/c mice from cysticercosis infection; type: in vivo; conditions: pre-injected two days, 10 T. crassiceps cysts/mouse, dosed daily four weeks, intraperitoneal; vs untreated controls
Procedure: FIG. 8. […] Each treated mouse was pre-injected intraperitoneally with inhibitor for two days. During treatment phase, each treated mouse received 1.48×10^−2 μg/μl of N2 daily for three weeks and every other day during the last week. Injections were carried out in 150 μl of dimethyl sulfoxide for each mouse. Both treated groups and positive controls were challenged intraperitoneally with 10 Taenia crassiceps cysts in 200 μl 0.15M PBS at the time of initial infection. After one month of infection, both groups were euthanized and cysts removed by washing with sterile 0.15M PBS. A minimum of two attached cysts were scored as multilobed (ML). […] (B) Graphically represents the effect of protease inhibitor treatment of BALB/c mice challenged with Taenia crassiceps cysts over a long-term period. Mice were divided into treated and untreated groups (5 mice/group).Each mouse in the treated group was pre-injected intraperitoneally with inhibitor for two days. […] Cysts were then counted by visual inspection. […]
Based upon the premise that the cyst wall cysteine protease may serve a critical finction to the life cycle of the Taenia cyst, we tested our most efficacious inhibitors, LLL-FMK and LLY-FMK (K-Pyr was used as a control), for their abilities to protect mice from cysticercosis infection. […] After one month, the mice were euthanized and the cysts counted. […]

Taenia crassiceps cysts [4] = assay: Scanning electron microscopy of surfaces of cysts removed from treated mice; type: in vivo
From the text: FIG. 9. Scanning electron microscopy of the surface of cysts removed from untreated mice versus cysts removed from treated mice. Magnifications are identical for both slides in each panel. panel A (4000×). […] No immune cells were seen on cysts removed from untreated mice. Panel B (25,000×). […] Microtriches in untreated cysts can be seen to be visibly longer. Visible anchors were also noted for the untreated cysts group, whereas these anchors were not observed in microtriches from treated cysts.
For example, we hypothesized that the cysteine protease was a key parasitic molecule to allow the cyst to evade the host immune response, by cleaving host antibodies. By inhibiting the Taenia cysteine protease with Z-LLY-FMK, we hypothesized that host immunoglobulin could now bind the parasites, and initiate immunological responses (e.g., complement via IgG2a) which would cause damage to the cyst wall. […] We identified macrophages, neutrophils, fibroblasts, and collagenous deposits on the cyst surfaces from treated mice, in comparison to their absence on cysts from untreated mice. General surface atrophy was also apparent. […] Breaks in the integrity of the cyst surface were also noted for the cysts removed from treated mice. […] Cysts removed from untreated mice were characterized by no immune cells, intact and longer microtriches, and homogeneity of the cyst surface.

Sequence of Cathepsin L (P07711 114-333): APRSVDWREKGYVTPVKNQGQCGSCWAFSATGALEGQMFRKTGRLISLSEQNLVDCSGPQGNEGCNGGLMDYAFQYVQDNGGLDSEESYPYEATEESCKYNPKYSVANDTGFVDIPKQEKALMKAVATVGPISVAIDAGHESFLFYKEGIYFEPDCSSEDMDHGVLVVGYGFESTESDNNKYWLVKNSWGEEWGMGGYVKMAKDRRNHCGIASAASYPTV
Sequence of Cathepsin D (P07339 65-412): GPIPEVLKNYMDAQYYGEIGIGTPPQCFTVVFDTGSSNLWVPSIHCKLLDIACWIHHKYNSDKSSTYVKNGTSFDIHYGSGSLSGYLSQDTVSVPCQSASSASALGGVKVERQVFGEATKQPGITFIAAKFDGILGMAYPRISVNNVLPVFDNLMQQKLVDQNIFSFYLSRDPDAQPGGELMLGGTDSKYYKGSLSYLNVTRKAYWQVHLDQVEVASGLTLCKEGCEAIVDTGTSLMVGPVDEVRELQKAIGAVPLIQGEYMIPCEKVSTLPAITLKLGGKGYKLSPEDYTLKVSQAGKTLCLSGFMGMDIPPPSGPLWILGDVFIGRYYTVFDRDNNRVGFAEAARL

## CC(C)C[C@H](NC(=O)OCc1ccccc1)C(=O)N[C@@H](CC(C)C)C(=O)N[C@@H](CC(C)C)C(=O)Nc1ccc2c(C(F)(F)F)cc(=O)oc2c1 [Z-LLL-AFC, Z-Leu- Leu-Leu-AFC] (Cbz-Leu-Leu-Leu-{AFC})
Cathepsin B
  Percent inhibition of Cathepsin B (cysteine): 0%
Cathepsin D
  Percent inhibition of Cathepsin D (aspartic): 0%
Cathepsin H
  Percent inhibition of Cathepsin H (cysteine): 0%
Cathepsin L
  Percent inhibition of Cathepsin L (cysteine): 0%
Trypsin
  Percent inhibition of Trypsin (serine): 0%
[1]
  cleavage as substrate (Vmax): noncleavable

## CC(C)C[C@H](NC(=O)OCc1ccccc1)C(=O)N[C@@H](CC(C)C)C(=O)N[C@@H](Cc1ccc(O)cc1)C(=O)Nc1ccc2c(C(F)(F)F)cc(=O)oc2c1 [Z-LLY-AFC, Z-Leu-Leu-Tyr-AFC] (Cbz-Leu-Leu-Tyr-{AFC})
Cathepsin B
  Percent inhibition of Cathepsin B (cysteine): 0%
Cathepsin D
  Percent inhibition of Cathepsin D (aspartic): 0%
Cathepsin H
  Percent inhibition of Cathepsin H (cysteine): 0%
Cathepsin L
  Percent inhibition of Cathepsin L (cysteine): 0%
Trypsin
  Percent inhibition of Trypsin (serine): 0%
[1]
  cleavage as substrate (Vmax): noncleavable

## CC(C)C[C@H](NC(=O)[C@H]1O[C@@H]1C(=O)O)C(=O)NCCCCN=C(N)N [E64]
[2]
  inhibition of cleavage of human IgG: Inhibition was noted

## Leu-Phe-Ketoamide-Pyridyl [K-Pyr]
Taenia crassiceps cysts [3]
  % Prophylactic protection of BALB/c mice: 40%
Taenia crassiceps cysts [4]
  Immune cells observed by SEM on cyst surfaces: None
Taenia crassiceps cysts [4]; listed as K- Pyr
  Immune cells observed by SEM on cyst surfaces: neither adherent immune cells nor damaged tegunent

## CC(C)CC(NC(=O)CCC(=O)O)C(=O)NC(Cc1ccc(O)cc1)C(=O)Nc1ccc2c(C(F)(F)F)cc(=O)oc2c1 (stereo not drawn) [Suc-Leu-Tyr-AFC] (Suc-Leu-Tyr-{AFC}; configuration not given here)
[2]
  inhibition of cleavage of human IgG: ability to inhibit
